Like-named read-outs stand apart in the source and are kept apart here.
Experiments:
[1] = test system: LPS-induced expression of TNF-α in rat blood; assay: In vitro effect of the compound on LPS-induced expression of TNF-α in rat blood (ELISA); assay type: cell-based, Sprague Dawley rats; set-up: key to TNF-α inhibitory ratio: 80% ≥ + > 60%; ++ > 80%; — N/A; details: final compound concentration 100 μM, 5 hours, plasma TNF-α by ELISA; for inhibition at 100 µM: read-out: TNF-α inhibitory ratio
Text: Experimental Example 2: In Vitro Evaluation of the Effect of the Compound on LPS-Induced Expression of TNF-α in Rat Blood
Experimental Objectives: To detect in vitro the effect of the test compound on LPS-induced expression of TNF-α in rat blood and evaluate the inhibitory effect of the compound on LPS-induced expression of TNF-α in rat blood.
Sprague Dawley rats (male, 210-260 g, 8-10 weeks old, Shanghai Slack)
Rat TNF-alpha Quantikine ELISA Kit (R & D, #SRTA00)
A solution of the test compound with a concentration of 1 mM was prepared and 40 μL (final compound concentration was 100 μM) was added to a 48-well cell culture plate. Rats were anesthetized with isoflurane and blood was collected from the heart (heparin anticoagulation). The blood was added to the 48-well cell plate to which the test compound has been added, with 320 μL per well. The 48-well plate was placed in a cell incubator, incubated for 30 minutes and then removed, added with 40 μL LPS solution (100 μg/mL), mixed and placed in the incubator to continue the incubation. 5 hours later, the 48-well plate was removed and the blood sample was transferred to a 1.5 mL centrifuge tube and centrifuged in a centrifuge (4,500 rpm, 4° C., 5 minutes). The plasma was separated from the supernatant, frozen quickly after packing and stored in −80° C. refrigerator. The next day the R&D ELISA kit was used to measure TNF-α levels in plasma samples according to the instructions of the kit.

[2] = molecular target: T1, Full length human PDE2A protease (Homo sapiens, UniProt O00408); assay: In vitro evaluation of PDE2 phosphodiesterase inhibitory activity (Transcreener AMP2/GMP2 fluorescence polarization); assay type: biochemical
T1 construct: Full length human PDE2A protease; GST (N); host or cells: insect Sf9 cells (baculovirus)
Protocol: In Vitro Evaluation of PDE2 Phosphodiesterase Inhibitory Activity Experimental objectives: To detect the concentration of AMP/GMP produced in the reaction system by measuring the fluorescence intensity of the fluorescent dye AlexaFluor 633 substituted on AMP/GMP antibody and to calculate the PDE2 phosphodiesterase inhibitory IC50 value of the test compound. Test buffer solution: 10 mM Tris-HCl, pH 7.5, 5 mM MgCl2, 0.01% Brij 35, 1 mM DTT, and 1% DMSO. Enzyme: Full length human PDE2A protease expressed and recombined in insect Sf9 cells with baculovirus using N-terminal GST tag […] Transcreener® AMP^2/GMP^2 antibody, AMP2/GMP2 AlexaFluor 633 fluorescent dye The enzyme solution was prepared with freshly prepared buffer solution and then added to the reaction wells. The DMSO solution of the test compound was added by Echo550 non-contact nanoscale sonicate pipetting system and preincubated for 10 minutes at room temperature. The reaction was initiated by addition of substrate (1 μM cGMP) and allowed to react for one hour at room temperature. The detection system (Transcreener® AMP^2/GMP^2 antibody, AMP2/GMP2 AlexaFluor 633 fluorescent dye) was then added and reacted for 90 minutes at room temperature before fluorescence polarization was detected using Ex/Em 620/688. The intensity of fluorescence polarization was converted to nM concentration by the AMP/GMP standard curve and then relative inhibition of enzyme activity relative to DMSO blank was calculated. IC50 values and curves were calculated using the Prism software package (GraphPad Software, San Diego Calif., USA)

[3] = recombinant full length human PDE2A, substrate 1 μM cGMP, 1 hour at room temperature, read-out: PDE2 phosphodiesterase inhibitory activity

T1 sequence (O00408 whole entry): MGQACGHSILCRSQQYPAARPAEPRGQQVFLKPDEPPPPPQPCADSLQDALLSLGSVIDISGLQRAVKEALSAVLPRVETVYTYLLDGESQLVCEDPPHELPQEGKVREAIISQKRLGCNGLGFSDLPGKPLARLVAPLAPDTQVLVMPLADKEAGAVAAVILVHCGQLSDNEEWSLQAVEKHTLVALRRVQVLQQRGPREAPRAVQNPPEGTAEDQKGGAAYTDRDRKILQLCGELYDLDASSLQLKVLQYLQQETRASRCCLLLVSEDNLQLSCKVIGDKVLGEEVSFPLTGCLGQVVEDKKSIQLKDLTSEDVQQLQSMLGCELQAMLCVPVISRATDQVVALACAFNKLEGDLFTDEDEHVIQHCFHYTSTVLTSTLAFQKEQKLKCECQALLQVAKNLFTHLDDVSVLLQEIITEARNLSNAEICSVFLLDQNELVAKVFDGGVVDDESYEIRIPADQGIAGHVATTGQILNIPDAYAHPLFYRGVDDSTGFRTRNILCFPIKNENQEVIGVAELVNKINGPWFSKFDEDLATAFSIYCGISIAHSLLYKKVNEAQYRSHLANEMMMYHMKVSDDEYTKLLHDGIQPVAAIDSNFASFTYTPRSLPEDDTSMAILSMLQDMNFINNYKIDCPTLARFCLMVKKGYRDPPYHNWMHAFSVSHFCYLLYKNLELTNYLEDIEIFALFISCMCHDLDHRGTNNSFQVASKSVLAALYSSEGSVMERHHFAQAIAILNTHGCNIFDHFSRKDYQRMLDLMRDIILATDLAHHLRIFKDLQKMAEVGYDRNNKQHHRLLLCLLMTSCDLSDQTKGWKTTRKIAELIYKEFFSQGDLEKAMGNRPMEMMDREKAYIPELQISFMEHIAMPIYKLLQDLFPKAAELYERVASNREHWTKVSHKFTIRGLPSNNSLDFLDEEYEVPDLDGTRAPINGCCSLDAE

Row | Structure (SMILES) | IC50 [2, 3] [µM] | inhibition at 100 µM [1] [%] | TNF-α inhibitory ratio [1] | IC50 [2] [µM]
1 | Cc1cc(CCCCn2c(=O)c3c(ncn3C)n(C)c2=O)on1 [Example 19, 3,7-Dimethyl-1-(4-(3-methylisoxazol-5-yl)butyl)-1H-purine-2,6(3H,7H)-dione] |  |  | — | 10 to 50
2 | Cn1cnc2c1c(=O)n(CCCN1CCCC1=O)c(=O)n2C [Example 3, 3,7-Dimethyl-1-(3-(2-oxopyrrolidin-1-yl)propyl)-1H-purine-2,6(3H,7H)-dione] |  |  | — | 
3 | Cc1cc(CCCCn2cnn3cnc(CC(C)C)c3c2=O)on1 [Example 82, 5-isobutyl-3-(4-(3-methylisoxazol-5-yl)butyl)imidazo[5,1-F] [1,2,4]triazin-4-one] | 1 to 10 | 60 to 80 |  | 
4 | CC(C)c1cc(Cn2c(=O)c3c(ncn3C)n(C)c2=O)on1 [Example 15, 1-((3-Isopropylisoxazol-5-yl)methyl)-3,7-dimethyl-1H-purine-2,6(3H,7H)-dione] | 1 to 10 | 60 to 80 |  | 
5 | Cc1cc(C2CCC(n3c(=O)c4c(ncn4C)n(C)c3=O)CC2)on1 (centres unmarked) [Example 27, 3,7-Dimethyl-1-(4-(3-methylisoxazol-5-yl)cyclohexyl)-1H-purine-2,6(3H,7H)-dione] | 10 to 50 |  | — | 

More lines, main results first:

Row | IC50 [2, 3] [µM] | Structure (SMILES) | inhibition at 100 µM [1] [%] | TNF-α inhibitory ratio [1] | IC50 [2] [µM]
6 | 1 to 10 | CC(C)c1cc(Cn2c(=O)c3c(ncn3CC3CC3)n(C)c2=O)on1 [Example 59, 7-(Cyclopropylmethyl)-1-((3-isopropylisoxazol-5-yl)methyl)-3-methyl-1H-purine-2,6(3H,7H)-dione] | > 80 |  | 
7 | 10 to 50 | Cc1cc(CCCCn2c(=O)c3cccnc3n(C)c2=O)on1 [Example 89, 1-Methyl-3-[4-(3-methylisoxazol-5-yl)butyl]pyrido[2,3-d]pyrimidine-2,4-dione] | > 80 |  | 
8 | 1 to 10 | Cc1nc(C)c(CCn2c(=O)c3c(ncn3C)n(C)c2=O)s1 [Example 31, 1-(2-(2,4-Dimethylthiazol-5-yl)ethyl)-3,7-dimethyl-1H-purine-2,6(3H,7H)-dione] |  | — | 
9 | 10 to 50 | Cc1noc(C)c1Cn1c(=O)c2c(ncn2C)n(C)c1=O [Example 25, 1-((3,5-Dimethylisoxazol-4-yl)methyl)-3,7-dimethyl-1H-purine-2,6(3H,7H)-dione] |  | — | 

From patent US10278973B2, “Hydroxyl purine compounds and use thereof” (GUANGDONG RAYNOVENT BIOTECH CO., LTD., priority 2015, dated 2019)
